One block for each molecule: values may come before it.
Legend:
Format in all cases: functional
RPMI-8226 = assay: Growth inhibition of human RPMI8226 cells after 48 hrs by SRB protein assay; settings: RPMI-8226, 48 h; for TGI: read-out: Log TGI (converted)
[1] = Growth inhibition of human MALME 3M cells after 48 hrs by SRB protein assay; settings: for TGI: read-out: Log TGI (converted)
Hs-578T = assay: Growth inhibition of human HS578T cells after 48 hrs by SRB protein assay; settings: for TGI: read-out: Log TGI (converted)
SK-MEL-2 = assay: Growth inhibition of human SK-MEL-2 cells after 48 hrs by SRB protein assay; settings: SK-MEL-2, 48 h; for TGI: read-out: Log TGI (converted)
COLO 205 = assay: Growth inhibition of human COLO205 cells after 48 hrs by SRB protein assay; settings: COLO 205, 48 h; for TGI: read-out: Log TGI (converted)
K562 = assay: Growth inhibition of human K562 cells after 48 hrs by SRB protein assay; settings: K562, 48 h
SK-MEL-5 = assay: Growth inhibition of human SK-MEL-5 cells after 48 hrs by SRB protein assay; settings: SK-MEL-5, 48 h; for TGI: read-out: Log TGI (converted)
[2] = Growth inhibition of human MDA-MB-231/ATCC cells after 48 hrs by SRB protein assay; settings: MDA-MB-231, 48 h; for TGI: read-out: Log TGI (converted)
UACC-257 = assay: Growth inhibition of human UACC257 cells after 48 hrs by SRB protein assay; settings: UACC-257, 48 h; for TGI: read-out: Log TGI (converted)
HCT-116 = assay: Growth inhibition of human HCT116 cells after 48 hrs by SRB protein assay; settings: HCT-116, 48 h; for TGI: read-out: Log TGI (converted)
NCI-H322M = assay: Growth inhibition of human NCI-H322M cells after 48 hrs by SRB protein assay; settings: for TGI: read-out: Log TGI (converted)
HCT-15 = assay: Growth inhibition of human HCT15 cells after 48 hrs by SRB protein assay; settings: HCT-15, 48 h; for TGI: read-out: Log TGI (converted)
OVCAR-8 = assay: Growth inhibition of human OVCAR8 cells after 48 hrs by SRB protein assay; settings: OVCAR-8, 48 h; for TGI: read-out: Log TGI (converted)
MOLT-4 = assay: Growth inhibition of human MOLT4 cells after 48 hrs by SRB protein assay; settings: MOLT-4, 48 h
NCI-H226 = assay: Growth inhibition of human NCI-H226 cells after 48 hrs by SRB protein assay; settings: NCI-H226, 48 h
HCC 2998 = assay: Growth inhibition of human HCC2998 cells after 48 hrs by SRB protein assay; settings: HCC 2998, 48 h
U-251 = assay: Growth inhibition of human U251 cells after 48 hrs by SRB protein assay; settings: U-251, 48 h; for TGI: read-out: Log TGI (converted)
SK-OV-3 = assay: Growth inhibition of human SK-OV-3 cells after 48 hrs by SRB protein assay; settings: SK-OV-3, 48 h; for TGI: read-out: Log TGI (converted)
M14 = assay: Growth inhibition of human M14 cells after 48 hrs by SRB protein assay; settings: M14, 48 h; for TGI: read-out: Log TGI (converted)
OVCAR-5 = assay: Growth inhibition of human OVCAR5 cells after 48 hrs by SRB protein assay; settings: OVCAR-5, 48 h
NCI-H522 = assay: Growth inhibition of human NCI-H522 cells after 48 hrs by SRB protein assay; settings: NCI-H522, 48 h; for TGI: read-out: Log TGI (converted)
UACC-62 = assay: Growth inhibition of human UACC62 cells after 48 hrs by SRB protein assay; settings: UACC-62, 48 h; for TGI: read-out: Log TGI (converted)
NCI-H460 = assay: Growth inhibition of human NCI-H460 cells after 48 hrs by SRB protein assay; settings: NCI-H460, 48 h; for TGI: read-out: Log TGI (converted)
IGROV-1 = assay: Growth inhibition of human IGROV1 cells after 48 hrs by SRB protein assay; settings: IGROV-1, 48 h; for TGI: read-out: Log TGI (converted)
KM12 = assay: Growth inhibition of human KM12 cells after 48 hrs by SRB protein assay; settings: KM12, 48 h; for TGI: read-out: Log TGI (converted)
RXF 393 = assay: Growth inhibition of human RXF393 cells after 48 hrs by SRB protein assay; settings: RXF 393, 48 h; for TGI: read-out: Log TGI (converted)
EKVX = assay: Growth inhibition of human EKVX cells after 48 hrs by SRB protein assay; settings: for TGI: read-out: Log TGI (converted)
MCF7 [3] = assay: Growth inhibition of human MCF7 cells after 48 hrs by SRB protein assay; settings: MCF7, 48 h; for TGI: read-out: Log TGI (converted)
CCRF-CEM = assay: Growth inhibition of human CCRF-CEM cells after 48 hrs by SRB protein assay; settings: for TGI: read-out: Log TGI (converted)
HOP-62 = assay: Growth inhibition of human HOP62 cells after 48 hrs by SRB protein assay; settings: HOP-62, 48 h; for TGI: read-out: Log TGI (converted)
UO-31 = assay: Growth inhibition of human UO31 cells after 48 hrs by SRB protein assay; settings: UO-31, 48 h; for TGI: read-out: Log TGI (converted)
MCF7 [4] = assay: Anticancer activity against human MCF7 cells assessed as growth of cells at 100 uM relative to untreated cells
SF-295 = assay: Growth inhibition of human SF295 cells after 48 hrs by SRB protein assay; settings: SF-295, 48 h; for TGI: read-out: Log TGI (converted)
TK-10 = assay: Growth inhibition of human TK10 cells after 48 hrs by SRB protein assay; settings: TK-10, 48 h; for TGI: read-out: Log TGI (converted)
MDA-MB-435 = assay: Growth inhibition of human MDA-MB-435 cells after 48 hrs by SRB protein assay; settings: MDA-MB-435, 48 h; for TGI: read-out: Log TGI (converted)
NCI/ADR-RES = assay: Growth inhibition of human NCI/ADR-RES cells after 48 hrs by SRB protein assay; settings: for TGI: read-out: Log TGI (converted)
A549 = assay: Growth inhibition of human A549/ATCC cells after 48 hrs by SRB protein assay; settings: A549, 48 h; for TGI: read-out: Log TGI (converted)
BT-549 = assay: Growth inhibition of human BT549 cells after 48 hrs by SRB protein assay; settings: BT-549, 48 h
HOP-92 = assay: Growth inhibition of human HOP92 cells after 48 hrs by SRB protein assay; settings: HOP-92, 48 h

- GI50 (RPMI-8226): 2.95 µM
- GI50 (SK-MEL-2): 12.6 µM
- GI50 (COLO 205): 17 µM
- GI50 (K562): 7.59 µM
- GI50 (SK-MEL-5): 10.7 µM
- GI50 (HCT-116): 10.7 µM
- GI50 (NCI-H322M): 13.2 µM
- GI50 (HCT-15): 12 µM
- GI50 (OVCAR-8): 12.6 µM
- GI50 (MOLT-4): 1.62 µM
- GI50 (NCI-H226): 20 µM
- GI50 (HCC 2998): 18.2 µM
- GI50 (U-251): 10.5 µM
- GI50 (SK-OV-3): 29.5 µM
- GI50 (OVCAR-5): 20 µM
- GI50 (NCI-H522): 5.37 µM
- GI50 (NCI-H460): 17.4 µM
- GI50 (MCF7 [3]): 6.31 µM
- GI50 (CCRF-CEM): 0.355 µM
- GI50 (MDA-MB-435): 12.6 µM
- GI50 (A549): 21.4 µM
Structure (SMILES): O=c1/c(=C/c2ccc(Cl)cc2)sc2ncnn12
- TGI (RPMI-8226): 17.4 µM
- GI50 [1]: 11.2 µM
- TGI [1]: 26.9 µM
- GI50 (Hs-578T): 14.1 µM
- TGI (Hs-578T): 37.2 µM
- TGI (SK-MEL-2): 28.2 µM
- TGI (COLO 205): 38.9 µM
- TGI (K562; read-out: Log TGI (converted)): 28.8 µM
- TGI (SK-MEL-5): 23.4 µM
- GI50 [2]: 19.1 µM
- TGI [2]: 43.7 µM
- GI50 (UACC-257): 13.5 µM
- TGI (UACC-257): 30.2 µM
- TGI (HCT-116): 25.7 µM
- TGI (NCI-H322M): 26.3 µM
- TGI (HCT-15): 34.7 µM
- TGI (OVCAR-8): 36.3 µM
- TGI (MOLT-4; read-out: Log TGI (converted)): 8.71 µM
- TGI (NCI-H226; read-out: Log TGI (converted)): 55 µM
- TGI (HCC 2998; read-out: Log TGI (converted)): 32.4 µM
- TGI (U-251): 23.4 µM
- TGI (SK-OV-3): 55 µM
- GI50 (M14): 15.1 µM
- TGI (M14): 35.5 µM
- TGI (OVCAR-5; read-out: Log TGI (converted)): 34.7 µM
- TGI (NCI-H522): 18.6 µM
- GI50 (UACC-62): 14.5 µM
- TGI (UACC-62): 29.5 µM
- TGI (NCI-H460): 44.7 µM
- GI50 (IGROV-1): 10 µM
- TGI (IGROV-1): 24.5 µM
- GI50 (KM12): 10.5 µM
- TGI (KM12): 25.7 µM
- GI50 (RXF 393): 5.25 µM
- TGI (RXF 393): 18.2 µM
- GI50 (EKVX): 14.5 µM
- TGI (EKVX): 33.9 µM
- TGI (MCF7 [3]): 30.9 µM
- TGI (CCRF-CEM): 20 µM
- GI50 (HOP-62): 15.8 µM
- TGI (HOP-62): 35.5 µM
- GI50 (UO-31): 12.3 µM
- TGI (UO-31): 33.1 µM
- Activity (MCF7 [4]): 10%
- GI50 (SF-295): 17.8 µM
- TGI (SF-295): 35.5 µM
- GI50 (TK-10): 16.6 µM
- TGI (TK-10): 31.6 µM
- TGI (MDA-MB-435): 26.9 µM
- GI50 (NCI/ADR-RES): 26.3 µM
- TGI (NCI/ADR-RES): 89.1 µM
- TGI (A549): 83.2 µM

- GI50 (RPMI-8226): 20.9 µM
- GI50 (SK-MEL-2): 21.9 µM
- GI50 (COLO 205): 25.7 µM
- GI50 (SK-MEL-5): 22.9 µM
- GI50 (HCT-116): 32.4 µM
- GI50 (NCI-H322M): > 100 µM
- GI50 (HCT-15): 33.1 µM
- GI50 (OVCAR-8): 25.7 µM
- GI50 (U-251): > 100 µM
- GI50 (SK-OV-3): > 100 µM
- GI50 (BT-549): 0.339 µM
- GI50 (NCI-H522): 21.9 µM
- GI50 (NCI-H460): 35.5 µM
- GI50 (MCF7 [3]): 36.3 µM
- GI50 (CCRF-CEM): 33.9 µM
- GI50 (MDA-MB-435): 41.7 µM
- GI50 (A549): > 100 µM
Structure (SMILES): O=C(CC1Sc2ncnn2C1=O)Nc1ccccc1 (centres undefined)
- TGI (RPMI-8226): 64.6 µM
- GI50 [1]: 19.1 µM
- TGI [1]: 44.7 µM
- GI50 (Hs-578T): 12.3 µM
- TGI (Hs-578T): 45.7 µM
- TGI (SK-MEL-2): 53.7 µM
- TGI (COLO 205): 79.4 µM
- TGI (SK-MEL-5): 47.9 µM
- GI50 [2]: 19.1 µM
- TGI [2]: 38.9 µM
- GI50 (UACC-257): 40.7 µM
- TGI (UACC-257): > 100 µM
- TGI (HCT-116): > 100 µM
- TGI (NCI-H322M): > 100 µM
- TGI (HCT-15): > 100 µM
- TGI (OVCAR-8): 60.3 µM
- TGI (U-251): > 100 µM
- TGI (SK-OV-3): > 100 µM
- GI50 (M14): 21.9 µM
- TGI (M14): 45.7 µM
- TGI (BT-549; read-out: Log TGI (converted)): 1 µM
- TGI (NCI-H522): 42.7 µM
- GI50 (UACC-62): > 100 µM
- TGI (UACC-62): > 100 µM
- TGI (NCI-H460): > 100 µM
- GI50 (IGROV-1): 25.7 µM
- TGI (IGROV-1): 66.1 µM
- GI50 (KM12): > 100 µM
- TGI (KM12): > 100 µM
- GI50 (RXF 393): 18.6 µM
- TGI (RXF 393): 42.7 µM
- TGI (EKVX): 64.6 µM
- TGI (MCF7 [3]): > 100 µM
- TGI (CCRF-CEM): 100 µM
- GI50 (HOP-62): > 100 µM
- TGI (HOP-62): > 100 µM
- GI50 (UO-31): 25.1 µM
- TGI (UO-31): 57.5 µM
- Activity (MCF7 [4]): 0%
- GI50 (SF-295): > 100 µM
- TGI (SF-295): > 100 µM
- GI50 (TK-10): 19.1 µM
- TGI (TK-10): 39.8 µM
- TGI (MDA-MB-435): > 100 µM
- GI50 (HOP-92): 25.1 µM
- TGI (HOP-92; read-out: Log TGI (converted)): 66.1 µM
- GI50 (NCI/ADR-RES): 63.1 µM
- TGI (NCI/ADR-RES): > 100 µM
- TGI (A549): > 100 µM
